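Five concentrations, 48 hours, 96-well plates. Abbreviation: GI50, concentration required for 50% inhibition of growth. Definition used: TGI = concentration required for complete inhibition of growth.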 Bounds are passed on as bounds.

What all share (assay): NCI tumour cell line growth inhibition, 48 h
Test [1] deals with SK-MEL-5 melanoma.
In test [2] the test system is OVCAR-5 ovarian.
For test [3], the system named is MDA-MB-435.
For test [4], the system named is OVCAR-4 ovarian.
Test [5] concerns SK-MEL-2 melanoma.
The subject of test [6] is CCRF-CEM leukemia.
The test system of test [7] is OVCAR-3 ovarian.
Test [8] relates to EKVX NSCLC.
Test [9] concerns SNB-75 CNS.
The test system of test [10] is MALME-3M melanoma.

In the case of `COc1ccc(-c2c(C#N)c(N)nc(N3CCOCC3)c2C#N)cc1`, the GI50 in test [1] is 19100 nM; in test [2], 13900 nM; in test [3], 28500 nM; in test [4] it was 47000 nM; in test [5], 27100 nM; in test [6] it was 17900 nM. Further, the GI50 in [7] is 12900 nM; in test [8], 21400 nM; in test [9], 13500 nM; in test [10], 11700 nM. For the same molecule, the TGI in test [1] was 45900 nM; in test [2], 59900 nM; in test [3], over 100000 nM; in [4], over 100000 nM; in [5] it was over 100000 nM; in test [6] it was over 100000 nM. Also, the TGI is 45400 nM in test [7], over 100000 nM in [8], 60700 nM in test [9] and 54700 nM in test [10].
In the case of `CCCc1nc(Cl)nc(Cl)c1Cl`, the TGI is 3210 nM in test [1]; 1740 nM in [2]; 1410 nM in [3]; 289 nM in [4]; 2070 nM in test [5]; 73.1 nM in test [6]. Moreover, the TGI was found to be 534 nM in [7], 2630 nM in test [8], 6000 nM in test [9] and 2460 nM in test [10].
`CCOC(=O)c1sc(-c2ccc(OS(=O)(=O)C[C@]34CCC(CC3=O)C4(C)C)c(C=O)c2)nc1C`: the GI50 in test [1] is 877 nM; in test [2] it was 970 nM; in [3], 1060 nM; in test [4] it was 1490 nM; in test [5], 1130 nM; in test [6], 1010 nM. Also, the GI50 in test [7] was 904 nM; in test [8], 1300 nM; in test [9], 781 nM; in test [10], 1080 nM. The TGI in test [1] was 1590 nM; in [2], 2680 nM; in test [3], 2760 nM; in test [4], over 50000 nM; in test [5] it was 2690 nM; in [6], over 50000 nM. Also, the TGI in [7] is 2720 nM; in test [8] it was over 50000 nM; in test [9], 2800 nM; in [10], 2650 nM.
Consider `Nc1nc(N)c2cc(Sc3ccc4ccccc4c3)ccc2n1`, for which the TGI in test [1] is 2240 nM; in test [2] it was 10400 nM; in test [3], 2540 nM; in [4] it was 5260 nM; in test [5], 3420 nM; in test [6], 4830 nM. For the same molecule, the TGI in test [7] turned out to be 8630 nM; in test [8] it was 14500 nM; in test [9], 5890 nM; in test [10] it was 2860 nM. Moreover, the GI50 in test [5] was 1680 nM; in [10] it was 1290 nM.
Turning to `COc1cc([C@@H]2c3cc4c(cc3[C@H](OC(C)=O)[C@H]3COC(=O)[C@@H]23)OCO4)cc(OC)c1OC`, the GI50 in [1] was 298 nM; in [2] it was 523 nM; in [3], 78.7 nM; in test [4] it was 2110 nM; in test [5] it was 342 nM; in [6], 338 nM. Also, the GI50 in test [7] was 317 nM; in test [8], 489 nM. Further, the TGI in test [1] is 1240 nM; in test [2] it was over 100000 nM; in [3] it was 469 nM; in [4], over 100000 nM; in test [6], over 100000 nM; in [8], over 100000 nM. Besides, the TGI in test [9] and in [10] was over 100000 nM throughout.
Regarding `ClCc1cccc(Cn2cnc3c(Cl)nc(Cl)nc32)c1`, the GI50 in [1] is 1590 nM; in [2], 6520 nM; in test [3], 1690 nM; in test [4], 5510 nM; in [5], 1980 nM; in test [6], 2720 nM. For the same molecule, the GI50 in [7] is 1590 nM; in [8] it was 1740 nM; in [9], 2040 nM; in test [10], 2020 nM. For the same molecule, the TGI is 3050 nM in test [1]; 20200 nM in test [2]; 3260 nM in [3]; 20100 nM in test [4]; 4440 nM in test [5]; over 100000 nM in test [6]. In addition, the TGI came to 3210 nM in [7], 3350 nM in [8], 3890 nM in [9] and 4470 nM in [10].
As for `CC(=O)c1ccc2c(c1)N(CCCN1CCN(CCO)CC1)c1ccccc1S2`, the GI50 was 1720 nM in test [1]; 2290 nM in test [2]; 1720 nM in test [3]; 3980 nM in test [4]; 2110 nM in test [5]; 1680 nM in test [6]. Also, the GI50 is 2850 nM in [7], 4830 nM in [8], 1530 nM in test [9] and 1750 nM in [10]. Also, the TGI was 3140 nM in test [1]; 9780 nM in test [2]; 3520 nM in test [3]; 14700 nM in test [4]; 6020 nM in [5]; 5530 nM in [6]. Further, the TGI came out at 8900 nM in test [7], 21000 nM in [8], 3510 nM in test [9] and 3620 nM in test [10].
As to `C=C1C(=O)O[C@H]2[C@H]1CC/C(COC(=O)NCc1ccc(Cn3c(=O)sn(CCCCC)c3=O)cc1)=C\CC[C@@]1(C)O[C@@H]21`, the GI50 in test [1] is 3920 nM; in test [2], 2010 nM; in test [3], 1710 nM; in [4], 1620 nM; in [5] it was 2410 nM; in test [6], 364 nM. For the same molecule, the GI50 is 1410 nM in test [7], 1850 nM in [8], 1590 nM in [9] and 1610 nM in test [10]. In addition, the TGI in test [1] is 14300 nM; in [2], 4910 nM; in test [3] it was 3500 nM; in test [4], 3300 nM; in test [5] it was 5460 nM; in [6] it was 1670 nM. The TGI in test [7] was 2750 nM; in [8], 5590 nM; in [9] it was 4070 nM; in test [10], 3400 nM.

Source of the values: PubChem BioAssay (NCI).
